The source of these data is patent US10126289B2, “Multimodality CMOS sensor array for physiological characterization of cells” (Georgia Tech Research Corporation, priority 2015, dated 2018).

Each structure is given as a SMILES string.

In assay [1] the test system is human cardiomyocytes. As to the kind of experiment: Joint-modality cardiac drug screening: extracellular voltage recording of cardiomyocyte beating on CMOS sensor chip. It counts as cell-based. The following applies: 10 nM isoproterenol in culture medium. On the procedure: (§1) Human Cardiomyocytes. Human ESCs are first cultured in a monolayer until confluence. Next, cardiomyocytes are directly differentiated through the use of small molecules Gsk3 inhibitor and Wnt inhibitor for 14 days. Finally, the CMOS chip is sterilized using 70% ethanol and coated with a Matrigel matrix as a protein mixture layer to enhance cell culture and attachment. Cardiomyocytes are then seeded onto the CMOS chips as either single cells or aggregated cardiospheres.
(§2) On-chip cultured human cardiomyocytes was used in this experiment. Their autonomous beating is captured by the extracellular voltage recording, and the beating rate is used to characterize the potency of the cardiac drugs. Isoproterenol, a small molecule cardiac drug, is used in this example. Isoproterenol has its known drug effect of activating the β1-receptors on the cardiac cells and increasing the cardiac cells beating rate. It has been widely used to treat bradycardia and heart block.
(§3) First, the on-chip cardiomyocytes beating spikes were recorded as the extracellular voltage recording in a normal culture medium. The baseline cellular impedance mapping was also measured. Next, 10 nM isoproterenol was directed to the cell culture medium using pipettes, and the cardiomyocytes are real-time monitored with joint-modality measurements. […]

The subject of assay [2] is human cardiomyocytes. As to the kind of experiment: Joint-modality cardiac drug screening: real-time cellular impedance sensing (cell attachment). It counts as cell-based. As to conditions: 10 nM isoproterenol; FIG. 20. On the procedure:
as §1, §2, §3

The subject of assay [3] is human ovarian cancer cells (HeyA8-F8). The following applies: general statement; depends on number of cells and luciferin concentration; cited from earlier work.
Assay [4] shares this test system. As to conditions: 200 μg/mL luciferin at T=0; VPD 0.4V.
Description: Ovarian Cancer Cells. For culturing the ovarian cancer cells (HeyA8-F8), the CMOS chip surface is sterilized by 70% ethanol and then washed three times with sterile Phosphate Buffered Saline (PBS). To increase cell adhesion to the chip surface, 0.1% gelatin is added onto the chip for 30 minutes before being aspirated. […] Ovarian cancer cells are then seeded directly onto the CMOS chip and allowed to attach before adding 1 mL of cell culture media.
The human ovarian cancer cells (HeyA8-F8) can constitutively express firefly luciferase. […] The bioluminescence information can be used to verify the viability of the HeyA8-F8 cancer cells and can be further extended to other bioluminescence cell-based assays.
Since the intensity of the bioluminescence light is generally weak, the background noise, such as the photodiode dark current, should be suppressed and calibrated. […] Moreover, dark current in each sensing pixel is recorded before the measurement and then subtracted after the bioluminescence recoding.
The CMOS sensor chip starts data recording after a 130-second setup time. During the optical detection, the photodiode reset pulse width is 1 second and the repetition rate is 0.05 Hz. Thus, each photo current integration window is 19 seconds, and the optical detection data is refreshed every 20 seconds. […]

With `CC(C)NCC(O)c1ccc(O)c(O)c1` (centres unmarked) [isoproterenol, Isoproterenol], the “increase of recorded number of cell beating spikes in the 90-second counting window” value with human cardiomyocytes [1] turned out to be 150%. Moreover, the “real-time cardiomyocytes impedance change (cell attachment)” value in the assay on human cardiomyocytes [2] is on record as “small decrease”.

On to `O=C(O)[C@H]1CSC(c2nc3ccc(O)cc3s2)=N1` [luciferin], for which, in assay [3], the “time of luminescence emission peak after administration (in general)” value is given as “about 5 minutes”. Also, in assay [4], the “time at which bioluminescence emission fully decays” value is 800 s and the “time of bioluminescence emission peak after administration” value is “around 300 seconds”.
